Measured values as given in the RepoRT retention time repository (doi:10.1038/s41586-021-03707-9).

Assays:
[1] = RP, Waters ACQUITY UPLC HSS C18, 100 × 2.1 mm, 1.7 µm, 40 °C, 0.35 mL/min, estimated dead time 0.63 min; A: water + 0.1% formic acid; B: methanol + 0.1% formic acid; gradient (min/%B) 0/0.5 4/70 4.5/98 5.4/98; conditions: stereoisomer not certain
[2] = Waters ACQUITY UPLC BEH C18, 100 × 2.1 mm, 1.7 µm, 40 °C, 0.28 mL/min, estimated dead time 0.63 min; A: water + 6.5 mM ammonium hydroxide; B: methanol + 6.5 mM ammonium hydroxide; gradient (min/%B) 0/0.5 4/70 4.5/98 5.4/98; conditions: stereoisomer not certain

| LC retention time [1] [min] | LC retention time [2] [min] | Compound |
| --- | --- | --- |
| 3.35 | 0.886 | O=C(O)c1ccoc1 |
| 3.27 | 2.69 | NC(=O)CCC(NC(=O)Cc1ccccc1)C(=O)O (centres undefined) |
| 2.24 | 4.29 | CCN1CCCC1CNC(=O)c1cc(S(N)(=O)=O)ccc1OC (centres undefined) |
| 0.877 | 0.867 | O=C(O)c1ccncc1 |
| 0.822 | 0.848 | C[n+]1cccc(C(=O)[O-])c1 |
| 1.73 | 1.57 | Nc1nc2nccnc2c(=O)[nH]1 |
| 3.82 | 5.01 | CCOC(=O)C(N)Cc1c[nH]c2ccccc12 (centres undefined) |
| 4.21 | 2.51 | O=C(O)Cc1c[nH]c2ccccc12 |
| 1.32 | 0.812 | Nc1cc(O)cc(C(=O)O)c1 |
| 5.37 | 4.61 | CC(C(=O)O)c1cccc(C(=O)c2ccccc2)c1 (centres undefined) |
| 4.63 | 3.13 | O=C(O)CCc1c[nH]c2ccccc12 |
| 4.09 | 3.05 | CC(=O)c1ccc(O)cc1O |
| 2.23 | 1.49 | O=C(O)Cc1cc(O)ccc1O |
| 4 | 3.24 | CC(NC(=O)Cc1c[nH]c2ccccc12)C(=O)O (centres undefined) |
| 4.85 | 5.01 | COC(=O)Cc1c[nH]c2ccccc12 |
| 5.25 | 5.27 | CCCOC(=O)c1ccc(O)cc1 |
| 1.54 | 1.94 | Cc1ncc(CO)c(CO)c1O |
| 3.21 | 3.07 | O=C(O)c1ccc2ccccc2n1 |
| 3.43 | 3.28 | CSc1ncnc2nc[nH]c12 |
| 2.34 | 3.38 | CC(C)(C)NCC(O)c1ccc(O)c(CO)c1 (centres undefined) |

| LC retention time [1] [min] | LC retention time [2] [min] | Compound |
| --- | --- | --- |
| 3.56 | 1.31 | CCC(O)(CC)C(=O)O |
| 3.43 | 1.59 | COc1cc(C(=O)O)cc(OC)c1O |
| 2.5 | 2.58 | NC(Cc1ccc([N+](=O)[O-])cc1)C(=O)O (centres undefined) |
| 3.22 | 2.42 | [2H]c1c([2H])c([2H])c(C(=O)NCC(=O)O)c([2H])c1[2H] |
| 0.82 | 0.86 | CN(CC(=O)O)C(=N)N |
| 2.44 | 1.1 | NC(Cc1ccc(O)c([N+](=O)[O-])c1)C(=O)O (centres undefined) |
| 1.27 | 1.25 | O=C(O)c1cccnc1 |
| 2.83 | 1.95 | Oc1ccc(O)cc1 |
| 1.77 | 0.918 | CC(=O)NC(C)C(=O)O (centres undefined) |
| 1.01 | 0.811 | O=C(O)c1cc(=O)[nH]c(=O)[nH]1 |
| – | 1.61 | CC=C(C)C(=O)O |
| – | 1.15 | CC(=O)NC(CS)C(=O)O (centres undefined) |
| – | 1.97 | CCC(C)C(O)C(=O)O (centres undefined) |
| – | 2.5 | O=C(O)CCc1ccc(O)cc1 |
| – | 4.23 | CCCC(CCC)C(=O)O |
| – | 1.7 | CC(C)(CO)C(O)C(=O)NCCC(=O)O (centres undefined) |
| – | 2.77 | Cc1ccc(OC2OC(C(=O)O)C(O)C(O)C2O)cc1 (centres undefined) |
| – | 0.869 | CC=CC(=O)O |
| – | 1.7 | O=C(O)CNC(=O)c1ccco1 |
| – | 0.849 | NC(Cc1cnc[nH]1)C(=O)O (centres undefined) |

| LC retention time [1] [min] | LC retention time [2] [min] | Compound |
| --- | --- | --- |
| – | 1.79 | O=C(O)Cc1cccc(O)c1 |
| – | 1.56 | O=C(O)c1cccc(O)c1O |
| – | 3.55 | O=Cc1cccc(O)c1 |
| – | 2.51 | COc1cc(C=O)ccc1O |
| – | 1.63 | O=C(O)c1cc(O)ccc1O |
| – | 0.832 | O=C(O)c1cc(O)cc(O)c1 |
| – | 0.923 | Nc1nc2c(ncn2C2CC(O)C(COP(=O)(O)O)O2)c(=O)[nH]1 (centres undefined) |
| – | 0.798 | CC(CO)C(=O)O (centres undefined) |
| – | 3.06 | CC(C)CCC(=O)O |
| – | 2.48 | O=C(O)CNC(=O)c1ccccc1O |
| – | 2.93 | O=C(O)CCc1ccccc1O |
| – | 3.74 | CCC(C(=O)O)c1ccccc1 (centres undefined) |
| – | 0.848 | O=C(O)C(O)c1cccc(O)c1 (centres undefined) |
| – | 4.82 | CCCC(=O)Nc1ccc(OCC(O)CNC(C)C)c(C(C)=O)c1 (centres undefined) |
| – | 3 | O=C(O)C(=O)Cc1c[nH]c2ccccc12 |
| – | 0.797 | O=C(O)c1ccc(O)c(O)c1 |
| – | 1.59 | O=C(O)C(O)c1ccccc1 (centres undefined) |
| – | 2.21 | Cc1ccccc1C(=O)O |
| – | 0.842 | CCC(O)C(=O)O (centres undefined) |

More lines, now with the values behind:

| Compound | LC retention time [1] [min] | LC retention time [2] [min] |
| --- | --- | --- |
| O=c1cc[nH]c(=O)[nH]1 | 1.18 | 1.19 |
| CCCCCCCC(=O)OC(CC(=O)[O-])C[N+](C)(C)C (centres undefined) | 4.65 | 5.1 |
| CC1C(=O)Nc2ccccc21 (centres undefined) | 4.43 | 4.59 |
| O=C(O)CCCCCCC(=O)NCC(=O)O | 3.35 | 0.865 |
| CC(=O)NC(CC(N)=O)C(=O)O (centres undefined) | 0.981 | 0.76 |
| O=C(O)CCCCCCCCCO | 5.06 | 3.96 |
| CNCCc1c[nH]c2ccccc12 | 2.87 | 3.84 |
| Nc1ccn(C2OC(CO)C3OP(=O)(O)OC32)c(=O)n1 (centres undefined) | 0.912 | 0.926 |
| Nc1ccn(C2OC(CO)C(O)C2O)c(=O)n1 (centres undefined) | 1.1 | 1.49 |
| CC(CN)C(=O)O (centres undefined) | 0.839 | 0.808 |
| O=C1CC(C(=O)O)NC(=O)N1 (centres undefined) | 0.995 | 0.767 |
| c1ccc2[nH]ccc2c1 | 4.7 | 4.85 |
| Nc1ncnc2nc[nH]c12 | 1.05 | 1.99 |
| O=C1OC(C(O)CO)C(O)C1O (centres undefined) | 0.804 | 0.822 |
| O=[N+]([O-])c1ccc(O)cc1 | 4.18 | 2.41 |
| CSCC1OC(n2cnc3c(N)ncnc32)C(O)C1O (centres undefined) | 2.85 | 3.51 |
| OCC1OC(OC2C(CO)OC(O)(CO)C2O)C(O)C(O)C1O (centres undefined) | 0.799 | 0.859 |
| Cc1cn(C2CC(O)C(CO)O2)c(=O)[nH]c1=O (centres undefined) | 2.29 | 2.34 |
| NC(=O)NCCCC(N)C(=O)O (centres undefined) | 0.766 | 0.796 |

| Compound | LC retention time [1] [min] | LC retention time [2] [min] |
| --- | --- | --- |
| NC(=O)CCCCC1CCSS1 (centres undefined) | 4.6 | 4.75 |
| O=C1CCCc2[nH]ccc21 | 2.95 | 3.04 |
| CCCCC(N)C(=O)O (centres undefined) | 1.96 | 1.77 |
| CNC(=C[N+](=O)[O-])NCCSCc1ccc(CN(C)C)o1 | 2.32 | 4.28 |
| O=C(O)CCCCc1ccccc1 | 5 | 4.37 |
| Nc1ncnc2c1ncn2C1OC2COP(=O)(O)OC2C1O (centres undefined) | 1.95 | 2.32 |
| Cn1c(=O)c2c([nH]c(=O)n2C)n(C)c1=O | 3 | 2.29 |
| NCCc1c[nH]c2ccc(O)cc12 | 1.9 | 2.35 |
| CCCCNC(=O)NS(=O)(=O)c1ccc(C)cc1 | 5.11 | 4.37 |
| NCC1CCC(C(=O)O)CC1 (centres undefined) | – | 0.843 |
| NC(=O)C1=CN(C2OC(COP(=O)(O)OP(=O)(O)OCC3OC(n4cnc5c(N)ncnc54)C(O)C3O)C(O)C2O)C=CC1 (centres undefined) | – | 0.901 |
| CCCCC(CC)CCC(=O)O (centres undefined) | – | 5.33 |
| OCCNCCO | – | 0.945 |
| NC(CO)Cc1cnc[nH]1 (centres undefined) | – | 1.28 |
| NC(=O)c1ncn(C2OC(CO)C(O)C2O)n1 (centres undefined) | – | 0.858 |
| COC1OC(CO)C(O)C(O)C1O (centres undefined) | – | 0.979 |
| O=CC(O)C(O)C(O)CO (centres undefined) | – | 0.839 |
| CCCCCCCC(=O)O | – | 4.74 |
| CNC(=C[N+](=O)[O-])NCCSCc1csc(CN(C)C)n1 | – | 3.86 |

| Compound | LC retention time [1] [min] | LC retention time [2] [min] |
| --- | --- | --- |
| NCC(O)CCC(N)C(=O)O (centres undefined) | – | 0.78 |
| O=C(O)CCCCC1CCSS1 (centres undefined) | – | 3.95 |
| Nc1ncnc2c1ncn2C1OC(COP(=O)(O)OP(=O)(O)OCC2OC(O)C(O)C2O)C(O)C1O (centres undefined) | – | 0.924 |
| NCC(N)C(=O)O (centres undefined) | – | 0.768 |
| Nc1ncnc2c1ncn2C1OC(COP(=O)(O)OP(=O)(O)OC2OC(CO)C(O)C(O)C2O)C(O)C1O (centres undefined) | – | 0.917 |
| CC(CCC(=O)O)C1CCC2C3C(O)CC4CC(O)CCC4(C)C3CC(O)C12C (centres undefined) | – | 4.99 |
| C[N+](C)(C)CC(O)CC(=O)[O-] (centres undefined) | – | 1.23 |
| OCC1OC(OCC2OC(O)(CO)C(O)C2O)C(O)C(O)C1O (centres undefined) | – | 0.892 |
| O=S(=O)(O)CCO | – | 0.866 |
| C[N+](C)(C)CC(=O)[O-] | – | 0.809 |
| CCCCC1=NC2(CCCC2)C(=O)N1Cc1ccc(-c2ccccc2-c2nn[nH]n2)cc1 | – | 5.32 |
| CCCC(N)C(=O)O (centres undefined) | – | 1.02 |
| CCCCCCC(=O)O | – | 4.06 |
| C[N+](C)(C)CCCCC(N)C(=O)[O-] (centres undefined) | – | 0.837 |
| CC=CC=CC(=O)O | – | 2.28 |
| O=c1[nH]c(=O)c2[nH]c(=O)[nH]c2[nH]1 | – | 0.828 |
| CC([NH3+])C(=O)NCC(=O)[O-] (centres undefined) | – | 2.68 |
| O=C(O)CCCCCCC(=O)O | – | 0.826 |
| NC(CCO)C(=O)O (centres undefined) | – | 0.762 |
